The test system of data set [1] is vanadium pentoxide-induced bronchitis model. The data set can be described thus: Vanadium pentoxide-induced bronchitis model in mice. Conditions: 7 days after vanadium pentoxide; compared with control. It is filed as in vivo. The method, then:
Seven-week old C57BL strain male mice were used. The mouse was anaesthetized with isoflurane. Vanadium pentoxide (20 μg) was administered once to the lung through a cannula inserted into the trachea through the pharyngolarynx to induce pathology. To a non-vanadium pentoxide administration group (normal group), saline was administered, instead. KP-496 was administered by inhalation twice a day in the period from the vanadium pentoxide administration date to the day before autopsy, in the same manner as in Example 2. Furthermore, the normal group and the control group were allowed to spontaneously inhale saline in the same manner. A medicament for use in comparison, prednisolone, was orally administered at a dose of 5 mg/kg twice a day in the period from the vanadium pentoxide administration date to the day before autopsy. Note that the normal group consisted of 6 animals and the other group consisted of 10 animals. Each of the mice was anaesthetized with pentobarbital 7 days after vanadium pentoxide administration and killed by bloodletting from the abdominal aorta. The lung was excised out and fixed in 10 vol % neutral buffered formalin solution. […] The obtained value was divided by the circumferential length of the bronchial lumen (obtained in mucosal basal membrane) and the quotient was expressed as a mucus producing region area per millimeter of the bronchus. […]

The test system of data set [2] is PPE-induced pulmonary emphysema model. The data set is described as follows: PPE-induced pulmonary emphysema model in mice. The data set is classed as in vivo. The procedure: Eight-week old C57BL strain mice were anaesthetized with isoflurane. PPE (25 μg) was administered once to the lung through a cannula inserted into the trachea through the pharyngolarynx to induce a pulmonary damage. To a non-PPE administration group (normal group), saline was administered instead. In a preventive administration experiment (hereinafter referred to as a “preventive experiment”) of KP-496, drug effect was evaluated on inflammatory cells in BALF 2 days after PPE administration and by histopathological examination of the lung after 10 days. In a therapeutic administration experiment of KP-496 (hereinafter referred to as a “therapeutic experiment”), the drug effect was evaluated by histo-pathological examination of the lung and weight of the organs 14 days after PPE administration.
The medicament administration period was set from the PPE administration date to the day before autopsy in the preventive experiment and set from a predetermined day (KP-496A group: PPE administration date, KP-496B group: 3 days after PPE administration date, KP-496C group: 7 days after PPE administration date) to the day before autopsy in the therapeutic experiment. Inhalation administration of KP-496 was performed in the same manner as in Example 2. Furthermore, the normal group and the control group were allowed to spontaneously inhale saline, instead. A medicament for use in comparison, prednisolone, was orally administered in a dose of 5 mg/kg twice a day. A group consisted of 10 animals.
The animals were anaesthetized with pentobarbital and killed by exsanguination. Immediately after that, BAL of the right and left lungs was performed with 2 ml of saline. In the same manner as in Example 2, the total number of cells and the number of cells according to the cell type in the BALE were determined.
The lung was excised out from the animal killed by exsanguination in the same manner as in the above, the weight of the lung was measured. The lung was fixed in 10 vol % neutral buffered formalin solution. A pathological tissue sample was prepared in accordance in a general way. The degree of the damage of the lung tissue observed was evaluated by scoring in the same manner as in Example 2. Furthermore, the average of alveolar-space area of the entire lung tissue sample was computationally measured with image-processing software.
The average value and standard deviation of each group were calculated. Comparison between the normal group and the control group was performed by the Levene's test for equal variance and then, the t-test was performed depending on the results. To compare the control group and test substance administration groups, equal variance was first confirmed by the Levene's test and then multiple comparisons were performed in accordance with the Dunnett's test. Note that evaluation parameters with unequal variance and the damage score of the lung tissue were analyzed by nonparametric Mann-Whitney test. The significance level employed was […].

The test system of a further data set is human neutrophils. The data set can be described thus: LTB4-induced human neutrophil migration (48-well modified Boyden chamber). The data set is classed as cell-based. Conditions: test substance 10 μmol/L; 10 nmol/L LTB4. The method, then: Leukocytes were collected from human peripheral blood samples (20 mL of venous blood was taken by a doctor) were obtained from 4 healthy adults (male). They received sufficient information on the purpose of the experiment and gave informed consent in advance. An equivalent amount of 3% dextran (M.W. 208000) saline solution was added to the heparinized blood thus obtained and the mixture was kept to stand for one hour. Thereafter, the supernatant was collected and centrifuged at 150 g for 5 minutes at 4° C. The supernatant was discarded and the pellet was repeatedly twice haemolysed. To explain in detail, 4 mL of an ice-cooled 0.2% NaCl solution was added, quickly suspended and allowed to stand for 20 to 30 seconds. Thereafter, 4 mL of an ice-cooled 1.6% NaCl solution was added to the suspension solution to return the solution to the isotonic condition. After centrifugation was performed at 150 g for 5 minutes at 4° C., the same treatment was repeated. The cell pellet obtained was finally suspended in a buffer (Hank's solution containing 0.1% FBS) and subjected to an experiment.
This experiment was performed using a 48-well modified Boyden chamber (Neuro Probe). To explain in detail, the wells of the bottom plate of the chamber were filled with 25 μl of vehicle solution containing 10 nmol/L of LTB4. A polycarbonate filter (PVP-free, pore size: 3 μm) was placed on the bottom plate. The top plate of the chamber was mounted and each well of the upper plate was filled with 45 μL of a leukocyte suspension solution (1.0×10^6 cells/mL) prepared with the buffer. Immediately after that, 5 μL of a test substance (10 fold concentration of a final concentration) was added to the wells. […] The numbers of cells were counted in 4 visual fields (×400) per well and the average of them was regarded as the number of migrated cells. Each test substance was evaluated using 3 wells. The average value of these wells was calculated and regarded as the value of each substance.
The average and standard deviation of each group were calculated. […]

The next data set relates to COPD patients. The following applies: according to the reports (Non-patent documents 7, 8 and patent document 1); cited from earlier work.

`C[C@]12C=CC(=O)C=C1CC[C@@H]1[C@@H]2[C@@H](O)C[C@@]2(C)[C@H]1CC[C@]2(O)C(=O)CO` [prednisolone, reference compound]: the “increase of PAS positive area (mucus producing region of intrapulmonary bronchial epithelium)” value in data set [1] is “significantly suppressed”. The “total number of cells in BALF” value in data set [2] (2 days after PPE administration, preventive experiment) is recorded as 4.3±2.1 ×10^5 cells. In addition, in data set [2] (2 days after PPE, compared to control group), the “number of eosinophils in BALF” value is “significantly decreased”. The “weights of the organs (liver, spleen and thymus gland)” value in data set [2] (compared to control group) is “significantly decreased”. Also, the “increase in lung weight” value in data set [2] (preventive experiment, 10 days after PPE) is on record as “significantly suppressed”. Also, the “damage score of the lung” value in data set [2] (preventive experiment, 10 days after PPE, compared with control group) is recorded as “significantly decreased”. Besides, the body weight change result in data set [2] (preventive experiment, up to 10 days after PPE, compared to control group) is “significant reduction compared to the control group”. In data set [2] (preventive experiment, compared to control), the “increase of the average of the alveolar-space area” value is “significantly suppressed”.

In the case of `CC1=C(C)C(=O)C(C(CCCCCC(=O)O)c2ccccc2)=C(C)C1=O` (centres unmarked) [seratorodast, reference compound], the “suppression of LTB4-induced neutrophil migration” value in the data set on human neutrophils is given as “did not suppress the migration at all”. The “respiratory function of COPD patients” value in the data set on COPD patients was “improves the respiratory function”.

`COc1cc(C(=O)NS(=O)(=O)c2ccccc2C)ccc1Cc1cn(C)c2ccc(NC(=O)OC3CCCC3)cc12` [zafirlukast]: in the data set on COPD patients, the “respiratory function of COPD patients” value is “improves the respiratory function”.

Values taken from patent US20080249144A1, “Preventive or Therapeutic Agent for Chronic Inflammatory Lung Disease” (KAKEN PHARMACEUITICAL CO., LTD., priority 2004, published 2008).
